Measured values: patent publication US20050158391A1, “Azithromycin multiparticulate dosage forms by melt-congeal processes” (Pfizer Inc, priority 2003, published 2005)
Where two headings read alike, the source gives them in different places.

Tests used:
[1] = Degree of acid/ester substitution [A] from Saponification Number; assay type: physicochemical; conditions: for [A] degree of acid/ester substitution: Saponification Number (Pharmaceutical Excipients 2000) divided by 56.11
Source text: However, in most cases, the excipient candidate is not available in pure form, and may constitute a mixture of several primary molecular types as well as small amounts of impurities or degradation products that could be acids or esters. In addition, many excipient candidates are natural products or are derived from natural products that may contain a wide range of compounds, making the above calculations extremely difficult, if not impossible. […] The Saponification Number is the number of milligrams of potassium hydroxide required to neutralize or hydrolyze any acid or ester substituents present in 1 gram of the material. Measurement of the Saponification Number is a standard way to characterize many commercially available pharmaceutical excipients and the manufacturer often provides an excipient's Saponification Number. The Saponification Number will not only account for acid and ester substituents present on the excipient itself, but also for any such substituents present due to impurities or degradation products in the excipient. Thus, the Saponification Number will often provide a more accurate measure of the degree of acid/ester substitution in the excipient.
The degree of acid and ester substitution on a excipient can be calculated from the Saponification Number as follows. Dividing the Saponification Number by the molecular weight of potassium hydroxide, 56.11 g/mol, results in the number of millimoles of potassium hydroxide required to neutralize or hydrolyze any acid or ester substituents present in one gram of the excipient. Since one mole of potassium hydroxide will neutralize one equivalent of acid or ester substituents, dividing the Saponification Number by the molecular weight of potassium hydroxide also results in the number of meq of acid or ester substituents present in one gram of excipient.
For example, glyceryl monostearate can be obtained with a Saponification Number of 165, as specified by the manufacturer. Thus, the degree of acid/ester substitution per gram of glyceryl monostearate or its acid/ester concentration is 165÷56.11=2.9 meq/g excipient. Using the above example of a composition with 30 wt % azithromycin and 70 wt % glyceryl monostearate, the theoretical concentration of esters formed per gram of azithromycin if all of the azithromycin reacted would be 2.9 meq/g×70/30=6.8 meq/g.
This example illustrates how the degree of acid/ester substitution can be determined from the Saponification Number for an excipient. The degree of acid/ester substitution [A] for the excipients listed in Table 5 was determined by dividing by 56.11 the Saponification Number for the carrier as listed in Pharmaceutical Excipients 2000.
This example illustrates how the degree of acid/ester substitution can be determined from the Saponification Number for an excipient. The degree of acid/ester substitution for the excipients listed in Table 6 were determined by dividing by 56.11 the Saponification Number provided by the manufacturer.

[2] = cited from earlier work
[3] = Solubility of azithromycin dihydrate in molten excipient; assay type: physicochemical; conditions: 65° C.
Procedure: The solubility of azithromycin dihydrate in beeswax was measured using the following procedure. A 5 g sample of beeswax was placed in a glass vial and melted at 65° C. by placing the vial in a hot-water bath. Crystals of azithromycin dihydrate were then slowly added to the molten wax, with stirring. The crystals first added dissolved into the wax. […] Thus, the solubility of azithromycin dihydrate in beeswax was determined to be about 6 wt %.
Using the procedure outlined in Screening Example 29, the solubility of azithromycin dihydrate in the excipients listed in Table 8 was determined at the temperatures listed therein. In addition, the solubility of azithromycin dihydrate was determined for mixtures of carriers in the weight ratios reported in Table 8.

[4] = as listed in Pharmaceutical Excipients 2000

[A] degree of acid/ester substitution [1]	solubility of azithromycin dihydrate in beeswax [3]	degree of acid/ester substitution (acid/ester concentration) ([1]; 165÷56.11)	Compound	Saponification Number [2, 4]	Saponification Number ([2]; as specified by the manufacturer (description example))
<0.04 meq/g carrier			CCCCCCCCCCCCCCCCCCO [stearyl alcohol, 1-octadecanol]	<2	
3.6-3.9 meq/g carrier			CCCCCCCCCCCCCCCCCC(=O)O [stearic acid, octadecanoic acid]	200-220	
<0.04 meq/g carrier			CCCCCCCCCCCCCCCCO [cetyl alcohol]	<2	
2.6-2.8 meq/g carrier			sorbitan monostearate	147-157	
	about 6 wt %		CC[C@H]1OC(=O)[C@H](C)[C@@H](O[C@H]2C[C@@](C)(OC)[C@@H](O)[C@H](C)O2)[C@H](C)[C@@H](O[C@@H]2O[C@H](C)C[C@H](N(C)C)[C@H]2O)[C@](C)(O)C[C@@H](C)CN(C)[C@H](C)[C@@H](O)[C@]1(C)O [azithromycin dihydrate, 9a-aza-9a-methyl-9-deoxo-9a-homoerythromycin A]		
2.8-2.9 meq/g carrier		2.9 meq/g excipient	CCCCCCCCCCCCCCCCCC(=O)OCC(O)CO (stereo not drawn) [glyceryl monostearate]	155-165	165

Compound	[A] degree of acid/ester substitution [1]	solubility of azithromycin dihydrate in beeswax [3]	degree of acid/ester substitution (acid/ester concentration) ([1]; 165÷56.11)	Saponification Number [2, 4]	Saponification Number ([2]; as specified by the manufacturer (description example))
CCCCCCCC/C=C\CCCCCCCC(=O)OCC(O)CO (stereo not drawn) [glyceryl monooleate]	2.9-3.0 meq/g carrier			160-170	
